Source: paper PMC9090415, “Discovery of small molecule inhibitors of Plasmodium falciparum apicoplast DNA polymerase” (Journal of Enzyme Inhibition and Medicinal Chemistry, 2022)

Molecular target: P. falciparum apicoplast DNA polymerase (Pf-apPOL) (Plasmodium falciparum, UniProt Q8ILY1)
Test: Fluorescence-based high-throughput DNA polymerase assay (molecular beacon), primary screen and dose-response
Assay type: biochemical
Settings: for DNA Pol: 90 min, 10 µM
Procedure: The HT assay employs a molecular beacon, a stem-loop DNA template with a Cy3 dye and the Black Hole Quencher on the 3′ and 5′ ends of the DNA, respectively. Pf-apPOL concentration is based on a calculated absorptivity of ε280 = 56750 M^−1 cm^−1. Reactions were carried out at 25 °C, using Corning 3575 […] (well-volume, 20 µL). Assays testing for compound inhibition composed of reaction buffer (pH 7.9 in 50 mM potassium acetate, 20 mM Tris-acetate and 10 mM magnesium acetate), Pf-apPOL (20 nM), DNA substrate (20 nM), dNTPs (6 µM), and compound (10 µM in DMSO). The DNA and nucleotide substrates (dNTPs) were at concentrations of 20 nM and 6 µM, respectively, in the assay. Pf-apPOL was incubated in the reaction buffer with dNTPs and the compound of interest (10 µM, in the assay) at 25 °C for 10 min. The DNA substrate was then added and the reaction was allowed to proceed for 90 min at 25 °C.
Each assay plate contained 16 negative controls (no Pf-apPOL, DMSO present) and 16 positive controls (Pf-apPOL present, no DMSO). The fluorescence of each well was determined using a BioTek Synergy Neo fluorescence plate reader using excitation and emission wavelengths of 555 and 570 nm, respectively.
In the above, Min is the average of fluorescence emission of the negative controls (substrate only), Max the average fluorescence emission from the positive controls (enzyme + substrate), and Test the emission from the assays in the presence of compounds (enzyme + compound + substrates). […] […] The IC50 of each compound was determined using Equation (2): (2) IC50= Vmax/(1+ (I/IC50)^n)
In the above, n measures cooperativity, with n > 1 indicating synergistic binding of more than a single molecule of the compound.
To identify apPOL inhibitors we utilised our previously developed high-throughput DNA polymerase assay. The HT assay is based on a molecular beacon DNA template that forms a stem-loop with a Cy3 dye and the Black Hole Quencher on the 3′ and 5′ ends of the DNA, respectively. DNA polymerase activity extends an annealed primer through the stem region, displacing the fluorophore from the quencher, thereby increasing its fluorescence (Figure 1(A)). The assay accurately recapitulates the kinetic behaviour of apPOL, as measured through more conventional low-throughput gel-based assays. The Z′ factor for the assay described here was 0.9 across all plates (data not shown).
Figure 1. High-throughput screening. (A) The fluorescent-based DNA polymerase assay used to screen the compound libraries. The DNA template strand is a hairpin loop with a primer annealed to the loop. The 3’ end of the primer is 11 bases away from the 6 bp duplex. Strand displacement activity of the DNA polymerase separates the Cy3 dye from the Black hole quencher leading to an increase in fluorescent signal. (B) The high-throughput assay workflow. The DNA polymerase is incubated with […] compound for 10 min prior to addition of the hairpin substrate. The reaction is quenched at 3 different time points and the fluorescent signal is measured and % inhibition is determined using the provided equation.

[1] = primary screen value of the 186 hits, unit not given

P. falciparum apicoplast DNA polymerase (Pf-apPOL), sequence (Q8ILY1 entry or part of it): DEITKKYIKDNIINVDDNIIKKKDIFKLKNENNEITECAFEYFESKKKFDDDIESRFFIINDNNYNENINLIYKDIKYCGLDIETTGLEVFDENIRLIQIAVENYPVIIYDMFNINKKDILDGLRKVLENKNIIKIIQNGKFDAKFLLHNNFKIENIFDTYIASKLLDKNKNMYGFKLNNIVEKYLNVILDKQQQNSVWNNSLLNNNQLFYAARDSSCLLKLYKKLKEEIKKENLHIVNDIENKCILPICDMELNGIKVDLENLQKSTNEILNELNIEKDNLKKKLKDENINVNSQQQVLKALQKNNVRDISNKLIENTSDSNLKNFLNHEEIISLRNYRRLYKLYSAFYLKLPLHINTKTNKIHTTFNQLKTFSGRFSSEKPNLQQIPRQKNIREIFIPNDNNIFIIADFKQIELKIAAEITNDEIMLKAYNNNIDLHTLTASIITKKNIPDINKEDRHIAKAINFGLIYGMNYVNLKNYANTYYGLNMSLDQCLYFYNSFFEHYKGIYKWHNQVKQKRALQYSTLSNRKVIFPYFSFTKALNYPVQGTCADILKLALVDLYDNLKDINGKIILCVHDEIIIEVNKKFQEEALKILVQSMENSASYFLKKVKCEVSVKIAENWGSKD

O=c1[nH]c2ccc(Br)cc2c(-c2ccccc2)c1C1=NNC(c2ccco2)C1 (stereo not drawn) [KU0045540]
% inhibition Apo pol 10' (DRC-1, concentration 2.5): 38.7065%
% inhibition Apo pol 10' (DRC-1, concentration 5): 32.1153%
% inhibition Apo pol 10' (DRC-1, concentration 10): 58.5243%
% inhibition Apo pol 10' (DRC-1, concentration 20): 75.2705%
% inhibition Apo pol 10' (DRC-1, concentration 40): 80.4182%
% inhibition Apo pol 10' (DRC-1, concentration 80): 78.0702%
% inhibition Apol 90' (DRC-1, 90', concentration 2.5): 12.887%
% inhibition Apol 90' (DRC-1, 90', concentration 5): 9.899%
% inhibition Apol 90' (DRC-1, 90', concentration 10): 32.8734%
% inhibition Apol 90' (DRC-1, 90', concentration 20): 57.4465%
% inhibition Apol 90' (DRC-1, 90', concentration 40): 76.3337%
% inhibition Apol 90' (DRC-1, 90', concentration 80): 82.7097%
% inhibition apPOL 180' (DRC-1, 180', concentration 2.5): 0.7615%
% inhibition apPOL 180' (DRC-1, 180', concentration 5): -2.038%
% inhibition apPOL 180' (DRC-1, 180', concentration 10): 16.3913%
% inhibition apPOL 180' (DRC-1, 180', concentration 20): 40.539%
% inhibition apPOL 180' (DRC-1, 180', concentration 40): 67.9853%
% inhibition apPOL 180' (DRC-1, 180', concentration 80): 81.6451%
% inhibition Apo pol 5' (DRC-2, 5', concentration 2.5 (unit not given)): 15%
% inhibition Apo pol 5' (DRC-2, 5', concentration 20 (unit not given)): 65%
% inhibition Apo pol 5' (DRC-2, 5', concentration 40 (unit not given)): 65%
% inhibition Apol 40' (DRC-2, 40', concentration 2.5 (unit not given)): 15%
% inhibition Apol 40' (DRC-2, 40', concentration 10 (unit not given)): 49%
% inhibition Apol 40' (DRC-2, 40', concentration 20 (unit not given)): 77%
% inhibition ApPOL 90' (DRC-2, 90', concentration 10 (unit not given)): 49%
% inhibition ApPOL 90' (DRC-2, 90', concentration 20 (unit not given)): 77%
% inhibition ApPOL 90' (DRC-2, 90', concentration 80 (unit not given)): 72%
% inhibition apPOL 180' (DRC-2, 180', concentration 20 (unit not given)): 72%
% inhibition Apo pol 5' (DRC-2, 5', concentration 2.5): 15%
% inhibition Apo pol 5' (DRC-2, 5', concentration 5): 27%
% inhibition Apo pol 5' (DRC-2, 5', concentration 10): 40%
% inhibition Apo pol 5' (DRC-2, 5', concentration 20): 65%
% inhibition Apo pol 5' (DRC-2, 5', concentration 40): 65%
% inhibition Apo pol 5' (DRC-2, 5', concentration 80): 39%
% inhibition Apol 40' (DRC-2, 40', concentration 2.5): 15%
% inhibition Apol 40' (DRC-2, 40', concentration 5): 33%
% inhibition Apol 40' (DRC-2, 40', concentration 10): 49%
% inhibition Apol 40' (DRC-2, 40', concentration 20): 77%
% inhibition Apol 40' (DRC-2, 40', concentration 40): 81%
% inhibition Apol 40' (DRC-2, 40', concentration 80): 67%
% inhibition ApPOL 90' (DRC-2, 90', concentration 2.5): 15%
% inhibition ApPOL 90' (DRC-2, 90', concentration 2.5 (unit not given)): 15%
% inhibition ApPOL 90' (DRC-2, 90', concentration 5): 31%
% inhibition ApPOL 90' (DRC-2, 90', concentration 10): 49%
% inhibition ApPOL 90' (DRC-2, 90', concentration 20): 77%
% inhibition ApPOL 90' (DRC-2, 90', concentration 40): 83%
% inhibition ApPOL 90' (DRC-2, 90', concentration 80): 72%
% inhibition apPOL 180' (DRC-2, 180', concentration 2.5): 11%
% inhibition apPOL 180' (DRC-2, 180', concentration 5): 22%
% inhibition apPOL 180' (DRC-2, 180', concentration 10): 41%
% inhibition apPOL 180' (DRC-2, 180', concentration 20): 72%
% inhibition apPOL 180' (DRC-2, 180', concentration 40): 82%
% inhibition apPOL 180' (DRC-2, 180', concentration 80): 75%
DNA Pol [1]: 43
DNA Pol (primary screen value, head "DNA Pol", unit not given): 43

Cc1cc(C)c(O)c(/N=C/c2cc([N+](=O)[O-])cc(Br)c2O)c1 [KU0046272]
% inhibition Apo pol 10' (DRC-1, concentration 2.5): 3.169%
% inhibition Apo pol 10' (DRC-1, concentration 5): -1.228%
% inhibition Apo pol 10' (DRC-1, concentration 10): 12.3955%
% inhibition Apo pol 10' (DRC-1, concentration 20): 36.9804%
% inhibition Apo pol 10' (DRC-1, concentration 40): 60.3951%
% inhibition Apo pol 10' (DRC-1, concentration 80): 90.16%
% inhibition Apol 90' (DRC-1, 90', concentration 2.5): -6.623%
% inhibition Apol 90' (DRC-1, 90', concentration 5): -11.6285%
% inhibition Apol 90' (DRC-1, 90', concentration 10): 2.689%
% inhibition Apol 90' (DRC-1, 90', concentration 20): 23.1885%
% inhibition Apol 90' (DRC-1, 90', concentration 40): 44.716%
% inhibition Apol 90' (DRC-1, 90', concentration 80): 85.7846%
% inhibition apPOL 180' (DRC-1, 180', concentration 2.5): -11.4225%
% inhibition apPOL 180' (DRC-1, 180', concentration 5): -16.1751%
% inhibition apPOL 180' (DRC-1, 180', concentration 10): -3.511%
% inhibition apPOL 180' (DRC-1, 180', concentration 20): 14.6468%
% inhibition apPOL 180' (DRC-1, 180', concentration 40): 35.3485%
% inhibition apPOL 180' (DRC-1, 180', concentration 80): 85.8895%
% inhibition Apo pol 5' (DRC-2, 5', concentration 2.5): 7%
% inhibition Apo pol 5' (DRC-2, 5', concentration 5): 6%
% inhibition Apo pol 5' (DRC-2, 5', concentration 10): 4.64%
% inhibition Apo pol 5' (DRC-2, 5', concentration 20): 17%
% inhibition Apo pol 5' (DRC-2, 5', concentration 40): 41%
% inhibition Apo pol 5' (DRC-2, 5', concentration 80): 54%
% inhibition Apol 40' (DRC-2, 40', concentration 2.5): 2%
% inhibition Apol 40' (DRC-2, 40', concentration 5): 4.73%
% inhibition Apol 40' (DRC-2, 40', concentration 10): 4%
% inhibition Apol 40' (DRC-2, 40', concentration 20): 19%
% inhibition Apol 40' (DRC-2, 40', concentration 40): 47%
% inhibition Apol 40' (DRC-2, 40', concentration 80): 72%
% inhibition ApPOL 90' (DRC-2, 90', concentration 2.5): 1%
% inhibition ApPOL 90' (DRC-2, 90', concentration 5): 3.45%
% inhibition ApPOL 90' (DRC-2, 90', concentration 10): 2.43%
% inhibition ApPOL 90' (DRC-2, 90', concentration 20): 20%
% inhibition ApPOL 90' (DRC-2, 90', concentration 40): 47%
% inhibition ApPOL 90' (DRC-2, 90', concentration 80): 75%
% inhibition apPOL 180' (DRC-2, 180', concentration 2.5): -0.688%
% inhibition apPOL 180' (DRC-2, 180', concentration 5): 1.3%
% inhibition apPOL 180' (DRC-2, 180', concentration 10): 1.29%
% inhibition apPOL 180' (DRC-2, 180', concentration 20): 17%
% inhibition apPOL 180' (DRC-2, 180', concentration 40): 40%
% inhibition apPOL 180' (DRC-2, 180', concentration 80): 75%
% inhibition Apo pol 5' (conc. 20, 5', DRC-2): 17%
% inhibition apPOL 180' (conc. 20, 180', DRC-2): 17%
% inhibition Apol 40' (conc. 40, 40', DRC-2): 47%
% inhibition ApPOL 90' (conc. 40, 90', DRC-2): 47%
% inhibition ApPOL 90' (conc. 80, 90', DRC-2): 75%
% inhibition apPOL 180' (conc. 80, 180', DRC-2): 75%
DNA Pol (primary screen value by plate and well): 45
DNA Pol [1]: 45
